Data from patent publication US8329688B2, “Trans-4-[[(5S)-5-[[[3,5-bis(trifluoromethyl)phenyl]methyl](2-methyl-2H-tetrazol-5-yl)amino]-2,3,4,5-tetrahydro-7,9-dimethyl-1H-1-benzazepin-1-yl]methyl]-cyclohexanecarboxylic acid” (Eli Lilly and Company, priority 2009, dated 2012).

Experiment: IV and PO pharmacokinetics of CETP inhibitor compounds in male Sprague Dawley rats
Type: in vivo
Details: rat, 3 mg/kg PO, 1 mg/kg IV
Description: This following is to determine the pharmacokinetic parameters, including oral bioavailability, following a single 1 mg/kg intravenous bolus or a 3 mg/kg oral dose administration of the compound to male Sprague Dawley rats (n=4) in a crossover study design. The intravenous vehicle is 20% solutol microemulsion/80% deionized water. The oral vehicle is povidone USP 10%/SLS 0.5%/QS deionized water. In the intravenous arm, blood samples are collected at 0.08, 0.25, 0.5, 1, 2, 5, 8, 12, and 24 hours post-dose. In the oral arm, blood samples are collected at 0, 0.25, 0.5, 1, 2, 5, 8, 12, and 24 hours post-dose. Plasma is obtained by centrifugation, placed on ice, and frozen until samples are shipped on dry ice to Bioanalytical Systems, Inc. (BASi; West Lafayette, Ind.) for bioanalytical analysis. Concentrations of BCCA are determined by LC/MS/MS and pharmacokinetic parameters are calculated using a validated software program (Watson, Version 7.1). […]

F % (AUC Extrap.) ± sd: 8 ± 3%
SMILES: Cc1cc2c(c(C)c1C(F)(F)F)N(CC1CCC(CC(=O)O)CC1)CCC[C@@H]2N(Cc1cc(C(F)(F)F)cc(C(F)(F)F)c1)c1nnn(C)n1 (stereo partly drawn) [compound 15, (S)-(4-{5-[(3,5-Bis-trifluoromethyl-benzyl)-(2-methyl-2H-tetrazol-5-yl)-amino]-7,9-dimethyl-8-trifluoromethyl-2,3,4,5-tetrahydro-benzo[b]azepin-1-ylmethyl}-cyclohexyl)-acetic acid]
